{
  "source": "PubChem BioAssay (NCI)",
  "experiment_in_all_cases": "NCI anticancer screen, dose series, 48 h",
  "key": {"[1]": {"tested_on": "PC-3 prostate"}, "[2]": {"tested_on": "SNB-75 CNS"}, "[3]": {"tested_on": "HT29 colon"}, "[4]": {"tested_on": "RXF 393 renal"}, "[5]": {"tested_on": "HOP-62 NSCLC"}, "[6]": {"tested_on": "EKVX NSCLC"}, "[7]": {"tested_on": "IGROV1 ovarian"}, "[8]": {"tested_on": "MOLT-4 leukemia"}, "[9]": {"tested_on": "HS 578T breast"}, "[10]": {"tested_on": "MCF7 breast"}, "[11]": {"tested_on": "SN12C renal"}, "[12]": {"tested_on": "DU-145 prostate"}, "[13]": {"tested_on": "SF-295 CNS"}, "[14]": {"tested_on": "786-0 renal"}, "[15]": {"tested_on": "T-47D breast"}, "[16]": {"tested_on": "UO-31 renal"}, "[17]": {"tested_on": "A549 NSCLC"}, "[18]": {"tested_on": "SK-OV-3 ovarian"}, "[19]": {"tested_on": "TK-10 renal"}, "[20]": {"tested_on": "HCT-15 colon"}, "[21]": {"tested_on": "SF-539 CNS"}, "[22]": {"tested_on": "A498 renal"}, "[23]": {"tested_on": "NCI-H23 lung"}, "[24]": {"tested_on": "HOP-92 NSCLC"}, "[25]": {"tested_on": "NCI-H522 lung"}, "[26]": {"tested_on": "MDA-MB-435"}, "[27]": {"tested_on": "HL-60(TB) leukemia"}, "[28]": {"tested_on": "UACC-257 melanoma"}},
  "note": "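Where inhibition never reached the appropriate level, the endpoint shown equals the highest concentration tested. Otherwise, values were interpolated linearly from a five-concentration, 48-hour dose response in 96-well plates. GI50 is the concentration that inhibits growth by half. TGI: total growth inhibition.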",
  "data": [
    {"smiles": "COc1cc(C2CC(c3ccc(C(F)(F)F)cc3)=Nc3c(N)nc(N)nc3N2)ccc1Oc1nc(Nc2ccc(F)cc2)nc(N(C)C)n1", "note": "(stereo not given)", "values": [
      {"measurement": "TGI", "setting": "[1]", "result": "> 100", "unit": "µM"},
      {"measurement": "GI50", "setting": "[2]", "result": 2.17, "unit": "µM"},
      {"measurement": "TGI", "setting": "[2]", "result": "> 100", "unit": "µM"},
      {"measurement": "GI50", "setting": "[3]", "result": 2.23, "unit": "µM"},
      {"measurement": "TGI", "setting": "[3]", "result": 5.86, "unit": "µM"},
      {"measurement": "GI50", "setting": "[4]", "result": 1.22, "unit": "µM"},
      {"measurement": "TGI", "setting": "[4]", "result": 5.54, "unit": "µM"},
      {"measurement": "GI50", "setting": "[5]", "result": 17.8, "unit": "µM"},
      {"measurement": "TGI", "setting": "[5]", "result": 74.6, "unit": "µM"},
      {"measurement": "GI50", "setting": "[6]", "result": 4.23, "unit": "µM"},
      {"measurement": "TGI", "setting": "[6]", "result": "> 100", "unit": "µM"},
      {"measurement": "GI50", "setting": "[7]", "result": 5, "unit": "µM"},
      {"measurement": "TGI", "setting": "[7]", "result": "> 100", "unit": "µM"},
      {"measurement": "GI50", "setting": "[8]", "result": 1.71, "unit": "µM"},
      {"measurement": "TGI", "setting": "[8]", "result": "> 100", "unit": "µM"},
      {"measurement": "GI50", "setting": "[9]", "result": 4.77, "unit": "µM"},
      {"measurement": "TGI", "setting": "[9]", "result": 96.2, "unit": "µM"},
      {"measurement": "GI50", "setting": "[10]", "result": 2.66, "unit": "µM"},
      {"measurement": "TGI", "setting": "[10]", "result": 10.7, "unit": "µM"},
      {"measurement": "GI50", "setting": "[11]", "result": 6.09, "unit": "µM"},
      {"measurement": "TGI", "setting": "[11]", "result": 46.6, "unit": "µM"},
      {"measurement": "GI50", "setting": "[12]", "result": 4.9, "unit": "µM"},
      {"measurement": "TGI", "setting": "[12]", "result": "> 100", "unit": "µM"},
      {"measurement": "GI50", "setting": "[13]", "result": 7.12, "unit": "µM"},
      {"measurement": "TGI", "setting": "[13]", "result": 62.1, "unit": "µM"},
      {"measurement": "GI50", "setting": "[14]", "result": 4, "unit": "µM"},
      {"measurement": "TGI", "setting": "[14]", "result": 16.6, "unit": "µM"},
      {"measurement": "GI50", "setting": "[15]", "result": 19, "unit": "µM"},
      {"measurement": "TGI", "setting": "[15]", "result": "> 100", "unit": "µM"},
      {"measurement": "GI50", "setting": "[16]", "result": 3.66, "unit": "µM"},
      {"measurement": "TGI", "setting": "[16]", "result": "> 100", "unit": "µM"},
      {"measurement": "GI50", "setting": "[17]", "result": 4.78, "unit": "µM"},
      {"measurement": "TGI", "setting": "[17]", "result": "> 100", "unit": "µM"},
      {"measurement": "GI50", "setting": "[18]", "result": 63.5, "unit": "µM"},
      {"measurement": "TGI", "setting": "[18]", "result": "> 100", "unit": "µM"},
      {"measurement": "GI50", "setting": "[19]", "result": 18, "unit": "µM"},
      {"measurement": "TGI", "setting": "[19]", "result": 71, "unit": "µM"},
      {"measurement": "GI50", "setting": "[20]", "result": 3.4, "unit": "µM"},
      {"measurement": "TGI", "setting": "[20]", "result": 14.6, "unit": "µM"},
      {"measurement": "GI50", "setting": "[21]", "result": 6.1, "unit": "µM"},
      {"measurement": "TGI", "setting": "[21]", "result": 22.1, "unit": "µM"},
      {"measurement": "GI50", "setting": "[22]", "result": 17, "unit": "µM"},
      {"measurement": "TGI", "setting": "[22]", "result": 89.9, "unit": "µM"},
      {"measurement": "GI50", "setting": "[23]", "result": 16.9, "unit": "µM"},
      {"measurement": "TGI", "setting": "[23]", "result": 74.9, "unit": "µM"},
      {"measurement": "GI50", "setting": "[24]", "result": 2.1, "unit": "µM"},
      {"measurement": "TGI", "setting": "[24]", "result": 9.46, "unit": "µM"},
      {"measurement": "GI50", "setting": "[25]", "result": 4.75, "unit": "µM"},
      {"measurement": "TGI", "setting": "[25]", "result": 23.3, "unit": "µM"},
      {"measurement": "GI50", "setting": "[26]", "result": 4.59, "unit": "µM"},
      {"measurement": "TGI", "setting": "[26]", "result": 23.5, "unit": "µM"},
      {"measurement": "GI50", "setting": "[27]", "result": 2.35, "unit": "µM"},
      {"measurement": "TGI", "setting": "[27]", "result": 47.3, "unit": "µM"},
      {"measurement": "GI50", "setting": "[28]", "result": 14.1, "unit": "µM"},
      {"measurement": "TGI", "setting": "[28]", "result": 76.5, "unit": "µM"}
    ]}
  ]
}
